Source: paper PMC3030623 (Journal of the American Chemical Society, 2010)

Target: T1, Sfp (Bacillus subtilis, UniProt P39135)
T1 sequence (P39135 1-224): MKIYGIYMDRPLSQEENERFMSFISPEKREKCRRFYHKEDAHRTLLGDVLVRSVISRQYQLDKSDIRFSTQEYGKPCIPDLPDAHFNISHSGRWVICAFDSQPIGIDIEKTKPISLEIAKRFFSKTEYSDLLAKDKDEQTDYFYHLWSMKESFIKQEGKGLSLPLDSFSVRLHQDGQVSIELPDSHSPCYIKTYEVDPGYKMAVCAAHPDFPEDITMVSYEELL
Experiment: ESI-MS of acyl-phosphopantetheine transfer to apo-ACPtcsA
Assay type: biochemical
Details: co-substrate apo-ACPtcsA (ACP domain of TcsA)

## CC/C=C/C(=O)SCCNC(=O)CCNC(=O)[C@H](O)C(C)(C)COP(=O)(O)OP(=O)(O)OC[C@H]1O[C@@H](n2cnc3c(N)ncnc32)[C@H](O)[C@@H]1OP(=O)(O)O [compound 11, trans-2-pentenyl-CoA]
  ESI-MS of acyl-phosphopantetheine transfer to apo-ACPtcsA: we biochemically converted apo-ACPtcsA to trans-2-pentenyl-ACPtcsA
